Laboratory results: US10981908B2, “Aryl hydrocarbon receptor (AHR) modulator compounds” (PHENEX PHARMACEUTICALS AG, priority 2017, dated 2021)

Target: T1, AhR (Homo sapiens, UniProt P35869)
T1 construct: The HepG2 CYP1A1-Luc cells do express basal luciferase activity that can be increased via potent AhR agonists or decreased via potent AhR antagonists; endogenous in cells
T1 sequence (P35869 11-848): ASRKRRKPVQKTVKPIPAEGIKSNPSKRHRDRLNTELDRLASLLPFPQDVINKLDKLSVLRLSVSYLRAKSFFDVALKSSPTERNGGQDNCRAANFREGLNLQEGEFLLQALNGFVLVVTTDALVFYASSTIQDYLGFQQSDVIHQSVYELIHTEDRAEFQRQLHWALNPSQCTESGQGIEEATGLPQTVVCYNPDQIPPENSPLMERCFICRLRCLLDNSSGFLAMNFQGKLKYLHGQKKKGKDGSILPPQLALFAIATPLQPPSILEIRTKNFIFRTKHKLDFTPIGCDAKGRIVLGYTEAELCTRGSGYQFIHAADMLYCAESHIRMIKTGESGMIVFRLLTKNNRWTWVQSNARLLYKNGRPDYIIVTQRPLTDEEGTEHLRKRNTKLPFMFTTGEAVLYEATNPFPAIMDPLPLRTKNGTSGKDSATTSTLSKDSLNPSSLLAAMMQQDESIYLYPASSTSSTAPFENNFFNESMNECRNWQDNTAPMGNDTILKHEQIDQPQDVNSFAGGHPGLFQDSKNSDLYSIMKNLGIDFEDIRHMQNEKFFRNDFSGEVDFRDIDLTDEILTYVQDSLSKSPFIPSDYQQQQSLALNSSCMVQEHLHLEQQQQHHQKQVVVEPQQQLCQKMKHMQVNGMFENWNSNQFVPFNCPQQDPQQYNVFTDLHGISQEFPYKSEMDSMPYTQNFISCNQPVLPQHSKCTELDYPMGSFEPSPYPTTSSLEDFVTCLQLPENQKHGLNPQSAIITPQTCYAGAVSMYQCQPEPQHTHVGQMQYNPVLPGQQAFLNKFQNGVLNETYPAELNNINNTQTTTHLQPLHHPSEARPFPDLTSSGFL
Test: AhR direct luciferase reporter assay in HepG2 cells (HepG2 CYP1A1-LUC)
Assay type: cell-based
Settings: luciferase activity after 18 hours, medium with no exogenous AhR agonist or 10 nM VAF347, read-out: AhR potency (AhR antagonistic potency, IC50 class)
From the text: AhR Direct Luciferase Reporter Assay in HepG2 Cells
A stable cell line (HepG2 CYP1A1-LUC) was used in which part of the promoter region of the human CYP1A1 gene is stably integrated into the genome of human HepG2 hepatocytes (DSZM #ACC 180) in front of a Photinus pyralis Firefly Luciferase gene. A 1210 bp fragment comprising part of the human CYP1A1 promoter was isolated via SacI and BgIII restriction digestion from Lightswitch Clone S714555 (SwitchGearGenomics) and inserted between the SacI and BgIII sites in pGL4.30 (Promega #E8481) in front of the Firefly Luciferase gene. The resulting vector was linearized with NotI, transfected into HepG2 cells (DSMZ #ACC 180) and stably transfected clones selected with 250 μg/ml Hygromycin B. After repetitive rounds of subcloning and testing for robustly regulated luciferase activity after AhR agonist stimulation, a stable clonal HepG2 CYP1A1-Luc cell line was selected.
The HepG2 CYP1A1-Luc cells do express basal luciferase activity that can be increased via potent AhR agonists or decreased via potent AhR antagonists, added to the growth medium of the cells.
In typical reporter assays performed with this cell line, cells are grown in 96-well plates and AhR modulators are titrated into the growth medium in serial dilutions in RPMI-1640 Medium (Sigma #R7509) supplemented with 8,6% fetal calf serum (Sigma #F7524) and containing either no exogenous AhR agonist or 10 nM of the potent AhR agonist VAF347 (Calbiochem #182690). Cells are further cultivated for 18 hours and luciferase activities are determined from extracts of cells in buffers containing D-Luciferine and ATvP using a LUMIstar Optima microplate Luminometer from BMG Labtech.

IC50 [nM]	Structure (SMILES)
< 100	CCc1ccccc1-c1cc2ccc(NC(=O)c3ncnn3C)nc2[nH]1 [4/1]
100 to 1000	Cn1ncnc1C(=O)Nc1ccc2cc(-c3ccccc3C#N)[nH]c2n1 [4/2]
100 to 1000	Cn1ncnc1C(=O)Nc1ccc2cc(-c3cc(F)ccc3C#N)[nH]c2n1 [4/3]
< 100	Cn1ccnc1C(=O)Nc1ccc2cc(-c3ccccc3C(F)F)[nH]c2n1 [4/4]
100 to 1000	Cn1ncnc1C(=O)Nc1ccc2c(F)c(-c3ccccc3C(F)F)[nH]c2n1 [4/6]
< 100	CCn1ncnc1C(=O)Nc1ccc2cc(-c3ccccc3C(F)F)[nH]c2n1 [4/7]
< 100	Cn1ncnc1C(=O)Nc1ccc2cc(-c3cc(C#N)ccc3C(F)(F)F)[nH]c2n1 [4/8]
< 100	Cc1ocnc1C(=O)Nc1ccc2cc(-c3ccccc3C(F)F)[nH]c2n1 [5/1]
< 100	Cc1scnc1C(=O)Nc1ccc2cc(-c3ccccc3C(F)F)[nH]c2n1 [5/2]
< 100	Cc1ccccc1-c1cc2ccc(NC(=O)c3ccnn3C)nc2[nH]1 [Example 1, 1-Methyl-N-(2-(o-tolyl)-1H-pyrrolo[2,3-b]pyridin-6-yl)-1H-pyrazole-5-carboxamide]
< 100	Cn1nccc1C(=O)Nc1ccc2cc(-c3ccccc3C(F)(F)F)[nH]c2n1 [Example 1/1, 1-Methyl-N-(2-(2-(trifluoromethyl)phenyl)-1H-pyrrolo[2,3-b]pyridin-6-yl)-1H-pyrazole-5-carboxamide]
100 to 1000	Cn1nccc1C(=O)Nc1ccc2cc(-c3cccc(C(F)(F)F)c3)[nH]c2n1 [Example 1/2, 1-Methyl-N-(2-(3-(trifluoromethyl)phenyl)-1H-pyrrolo[2,3-b]pyridin-6-yl)-1H-pyrazole-5-carboxamide]
100 to 1000	Cn1nccc1C(=O)Nc1ccc2cc(-c3cccnc3C(F)(F)F)[nH]c2n1 [Example 1/3, 1-Methyl-N-(2-(2-(trifluoromethyl)pyridin-3-yl)-1H-pyrrolo[2,3-b]pyridin-6-yl)-1H-pyrazole-5-carboxamide]
> 1000	Cn1nccc1C(=O)Nc1ccc2cc(-c3ccccc3OC(F)(F)F)[nH]c2n1 [Example 1/4, 1-Methyl-N-(2-(2-(trifluoromethoxy)phenyl)-1H-pyrrolo[2,3-b]pyridin-6-yl)-1H-pyrazole-5-carboxamide]
> 1000	Cn1nccc1C(=O)Nc1ccc2cc(-c3cccc(OC(F)(F)F)c3)[nH]c2n1 [Example 1/5, 1-Methyl-N-(2-(3-(trifluoromethoxy)phenyl)-1H-pyrrolo[2,3-b]pyridin-6-yl)-1H-pyrazole-5-carboxamide]
< 100	Cn1ncnc1C(=O)Nc1ccc2cc(-c3ccccc3C(F)(F)F)[nH]c2n1 [Example 1/6, 1-Methyl-N-(2-(2-(trifluoromethyl)phenyl)-1H-pyrrolo[2,3-b]pyridin-6-yl)-1H-1,2,4-triazole-5-carboxamide]
< 100	O=C(Nc1ccc2cc(-c3ccccc3C(F)(F)F)[nH]c2n1)c1ccccn1 [Example 1/7, N-(2-(2-(Trifluoromethyl)phenyl)-1H-pyrrolo[2,3-b]pyridin-6-yl) picolinamide]
< 100	O=C(Nc1ccc2cc(-c3ccccc3C(F)(F)F)[nH]c2n1)c1ccccc1F [Example 1/8, 2-Fluoro-N-(2-(2-(trifluoromethyl)phenyl)-1H-pyrrolo[2,3-b]pyridin-6-yl)benzamide]
< 100	O=C(Nc1ccc2cc(-c3ccccc3C(F)(F)F)[nH]c2n1)c1ccc(F)cc1 [Example 1/9, 4-Fluoro-N-(2-(2-(trifluoromethyl)phenyl)-1H-pyrrolo[2,3-b]pyridin-6-yl)benzamide]
100 to 1000	O=C(Nc1ccc2cc(-c3ccccc3C(F)(F)F)[nH]c2n1)c1cccnc1 [Example 1/10, N-(2-(2-(Trifluoromethyl)phenyl)-1H-pyrrolo[2,3-b]pyridin-6-yl) nicotinamide]
< 100	Cn1ncnc1C(=O)Nc1ccc2cc(-c3cccc(F)c3C(F)(F)F)[nH]c2n1 [Example 1/11, N-(2-(3-Fluoro-2-(trifluoromethyl)phenyl)-1H-pyrrolo[2,3-b]pyridin-6-yl)-1-methyl-1H-1,2,4-triazole-5-carboxamide]
